Assay results as given in patent US20090117199A1, “Method of treatment of cancer” (priority 1998, published 2009).
Entries after “also recorded” stand apart in the source; their conditions may differ.

Key:
[1] = Local tolerance, single subcutaneous injection into normal tissue
Method: The local tolerance study was conducted using female Crl:SKH-1-hrBR hairless mice (Charles river), at least 6 weeks of age and 19-27 g at study Day 1.
All dosing was performed on Study Day 1. Follow-up examination of mice was conducted at regular intervals and the test terminated on either day 4 (3 animal from each group) or Day 15 (the remaining three animals).
Clinical observations were recorded daily (including dermal scoring using the Draize scoring system). Upon sacrifice, animals were subjected to a comprehensive necroscopy. Tissue samples from the injection site (and surrounding tissue) were obtained and examined histologically.

[2] = Kp of RB with and without phosphate buffer; assay type: physicochemical
Excerpt: This may be compared to 66.7 in the absence of phosphate buffer, in which case the pH would have been between about 6 to about 6.5.

[3] = test system: T-47D [ER−] tumors; assay: Tumor response to IL 10% RB in saline, report 020110.01B; assay type: in vivo, BALB/c Nude Mice; settings: 10% RB IL 25-50 μL/tumor Qd × 1; long passage T-47D [ER−]; 4/group
[4] = test system: Murine Hepa I-6 tumors; assay: Tumor response to IL 10% RB in saline, report 020111.01B; assay type: in vivo, BALB/c Nude Mice; settings: IL 30-50 μL/tumor Qd × 1; 8/group
[5] = Partitioning coefficient of RB, 1-octanol/0.9% saline, effect of pH
Method: The partition coefficient of RB was assessed over a range of pH values. The experiments were conducted by titrating RB solutions, measuring pH, then placing aliquots of the solutions into vials containing both organic (1-octanol) and aqueous (0.9% saline) phases. After mixing, the agents were allowed to partition for approximately 1 day. Based on absorption measurements (at the same wavelengths used in Experiment 1), the percentage of agent in each phase, the Kp and LogD (log of Kp) was reported.
Experiment 1 was conducted using a stock solution of 0.42 mg/mL RB, whereas Experiment 3 was conducted using a concentration of 0.08 mg/mL.

[6] = test system: MCF-7 [ER−] tumors; assay: Tumor response to IL 10% RB in saline, report 020110.01B; assay type: in vivo, BALB/c Nude Mice; settings: 10% RB IL 25-50 μL/tumor Qd × 1; within 21 days; 4/group
[7] = test system: H69Ar human resistant SCLC tumors; assay: Tumor response to IL 10% RB in saline, report 051017.01B; assay type: in vivo, Nu/nu Nude Mice; settings: 10% RB 45 μL/tumor Qd × 1; 24 hours post injection and over 7 days of observation
[8] = test system: melanoma lesions (stage III or IV metastatic melanoma); assay: Human trial, single IL injection of 10% RB solution in unbuffered saline
[9] = test system: Murine Hepa 1-6 tumors; assay: Tumor response to IL 10% RB in saline, report 051016.02B; assay type: in vivo, BALB/c Nude Mice; settings: 10% RB 45 μL/tumor Qd × 1
[10] = test system: PC-3 human prostate tumors; assay: Tumor response to IL 10% RB in saline, report 051017.02B; assay type: in vivo, Nu/nu Nude Mice; settings: 10% RB 45 μL/tumor Qd × 1; 24 hours post injection and over 29 days of observation
[11] = 25 evaluable target lesions at final follow up
[12] = analysed per patient, 11 patients
[13] = larger lesions receiving 0.2 mL or greater doses of RB

O=C([O-])c1c(Cl)c(Cl)c(Cl)c(Cl)c1-c1c2cc(I)c(=O)c(I)c-2oc2c(I)c([O-])c(I)cc12.[Na+].[Na+] [RB, 4,5,6,7-Tetrachloro-2′,4′,5′,7′-tetraiodofluorescein]
fatalities ([1]; SC, 2000 mg/kg study group (days 2 and 3), N=6): two fatalities
swelling at the injection site ([1]; SC, 250 and 500 mg/kg): Swelling was also noted in the injection site for most animals
injection site effect ([1]; SC, 1250-2000 mg/kg): massive necrosis at the injection site
histology of injection site ([1]; SC, <500 mg RB kg body weight, days 4 and 15): focal necrosis at the injection site
histological necrosis in normal tissue ([1]; SC, dosages up to 250 mg/kg at 1 days post administration): no histological evidence of necrosis
clinical outcome, local tolerance ([1]; SC, up to 500 mg RB/kg body weight (10%)): mild side effects primarily limited to localized discoloration of the injection site; also recorded: only mild clinical effects
systemic effects ([1]; lower dosage groups (below 2000 mg/kg)): No systemic effects
kidney lesions ([1]; one of the two fatalities in Group 6 (2000 mg/kg)): mild degeneration of the kidney
liver lesions ([1]; the two fatalities in Group 6 (2000 mg/kg)): mild to moderate degeneration of the liver
Kp ([2]; phosphate buffered saline, pH 7.4): 11.5
Kp ([2]; solution without phosphate buffer (unbuffered), absence of phosphate buffer, pH between about 6 to about 6.5): 66.7
tumors ablated [3]: (3/4).
damage/necrosis to peripheral normal tissue [4]: peripheral normal tissue (0/8)
solubility [5]: 195 µg/mL
partitioning coefficient versus pH ([5]; below a pH of about 4.4): rapidly increases
solubility of RB in the aqueous phase ([5]; below a pH of about 4.4 (lactone form)): almost complete insolubility
partitioning coefficient versus pH ([5]; pH range about 4 to about 10, 1-octanol/0.9% saline): consistent
tumors completely ablated [6]: [ER+] (4/4), MCF-7 [ER−] (4/4),
tumors fully ablated [7]: IL RB fully ablated 5/5 tumors 24
objective response rate (ORR), target lesions [8, 11]: 48%
target lesions with complete response (CR), RECIST [8, 11]: 36%
target lesions with partial response (PR) [8, 11]: 12%
target lesions with progressive disease [8, 11]: 24%
target lesions with stable disease [8, 11]: 28%
CR, non-target lesions individually ([8]; 26 evaluable nontarget lesions): 15%
ORR, non-target lesions individually ([8]; 26 evaluable nontarget lesions): 27%
PD, non-target lesions individually ([8]; 26 evaluable nontarget lesions): 52%
PR, non-target lesions individually ([8]; 26 evaluable nontarget lesions): 12%
CR, overall response per patient [8, 12]: 27%
ORR, overall response per patient [8, 12]: 55%
PR, overall response per patient [8, 12]: 27%
progressive disease (PD), overall response per patient [8, 12]: 18%
stable disease (SD), overall response per patient [8, 12]: 27%
CR [8, 13]: 62%
PR [8, 13]: 8%
successful chemoablation (CR + PR) [8, 13]: ~70%
ORR of nontarget lesions ([8]; patients with a negative lesion response): 0%
ORR of nontarget lesions ([8]; patients with a positive objective response of target lesions): 44%
CR, non-target lesions per patient ([8]; per patient basis): 9%
ORR, non-target lesions per patient ([8]; per patient basis): 27%
PD, non-target lesions per patient ([8]; per patient basis): 27%
PR, non-target lesions per patient ([8]; per patient basis): 18%
Subsequent status ([8]; per patient, some had subsequent other treatment): Alive at 34; also recorded: Dead at 12; also recorded: Dead at 9; also recorded: Alive at 31; also recorded: Alive at 27; also recorded: Dead at 8; also recorded: Alive at 28; also recorded: Alive at 29; also recorded: Alive at 30
adverse effects ([8]; single IL treatment): generally mild and transient
tumors fully ablated ([9]; 3 days post injection, 10/group): IL RB fully ablated 8/10 tumors 3
partial responses (number of tumors) ([9]; large tumors): responses were seen in 2 large
tumors fully ablated [10]: IL RB fully ablated 8/8 tumors 24
